Laboratory results reported in patent publication US20110301142A1, “ANTAGONISTS OF LYSOPHOSPHATIDIC ACID RECEPTORS” (priority 2008, published 2011).

What was measured:
human LPA1 = biological target: T1, human LPA1 (Homo sapiens, UniProt Q92633); assay: LPA1 calcium flux assay (HLPA1 Ca Flux); assay type: cell-based; conditions: Human LPA1 expressing CHO cells, stimulated with 10 nM LPA
T1 construct: the full-length cDNA for human LPA1 was obtained by PCR of the reverse transcription reaction; expressed in transfected cells
How it was run: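 CHO cells stably expressing cloned human LPA1, serum-starved overnight and loaded with Calcium 4 dye, were preincubated 30 min at room temperature with compound. Cells were then challenged with 10 nM LPA and intracellular Ca2+ measured; IC50 values came from titration curves.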

human LPA3 = biological target: T2, human LPA3 (Homo sapiens, UniProt Q9UBY5); assay: LPA3 calcium flux assay; assay type: cell-based; conditions: Human LPA3 expressing CHO cells, stimulated with 10 nM LPA; read-out: HLPA3 Ca Flux IC50
T2 construct: The full-length cDNA fragment for human LPA3 was obtained by PCR from the vector; expressed in transfected cells; cDNA from the Missouri S&T cDNA Resource Center
T2 sequence (Q9UBY5 1-353): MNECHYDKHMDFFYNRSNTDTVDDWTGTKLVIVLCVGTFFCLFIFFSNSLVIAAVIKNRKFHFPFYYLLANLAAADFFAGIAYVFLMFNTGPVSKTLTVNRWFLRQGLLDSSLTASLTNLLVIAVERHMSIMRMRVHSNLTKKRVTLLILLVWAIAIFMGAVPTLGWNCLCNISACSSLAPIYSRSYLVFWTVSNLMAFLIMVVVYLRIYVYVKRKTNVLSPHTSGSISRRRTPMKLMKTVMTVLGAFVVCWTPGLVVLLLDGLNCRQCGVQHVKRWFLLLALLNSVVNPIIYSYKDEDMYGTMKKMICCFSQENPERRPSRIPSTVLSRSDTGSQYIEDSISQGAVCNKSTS
How it was run: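 Stably transfected CHO cells, serum-starved overnight, loaded with Calcium 4 dye 1 h at 37 °C in HBSS/20 mM Hepes with 0.3% fatty-acid-free HSA. Compounds preincubated 30 min at room temperature, then cells stimulated with 10 nM LPA; intracellular Ca2+ read by fluorescence; IC50 from titration curves.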

T1 sequence (Q92633 whole entry): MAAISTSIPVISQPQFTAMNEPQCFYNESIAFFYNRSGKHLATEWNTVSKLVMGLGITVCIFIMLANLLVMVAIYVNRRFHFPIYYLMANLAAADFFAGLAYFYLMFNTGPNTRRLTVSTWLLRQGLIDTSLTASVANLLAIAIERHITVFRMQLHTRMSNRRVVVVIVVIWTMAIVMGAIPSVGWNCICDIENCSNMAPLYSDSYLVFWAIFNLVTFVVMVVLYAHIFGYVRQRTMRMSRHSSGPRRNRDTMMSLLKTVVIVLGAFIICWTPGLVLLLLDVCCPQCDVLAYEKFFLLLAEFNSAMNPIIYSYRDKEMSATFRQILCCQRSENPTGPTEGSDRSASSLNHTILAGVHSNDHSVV

IC50 (human LPA1)	IC50 (human LPA3)	Compound
0.3 to 1 µM	1 to 50 µM	Cc1noc(-c2ccc(-c3ccc(CC(=O)O)cc3)cc2)c1NC(=O)O[C@@H](C)c1ccccc1Cl [Compound 1-112, (4′-{4-[(S)-1-(2-Chloro-phenyl)-ethoxycarbonylamino]-3-methyl-isoxazol-5-yl}-biphenyl-4-yl)-acetic acid]
< 0.3 µM	1 to 50 µM	Cc1noc(-c2ccc(COc3ccccc3CC(=O)O)cc2)c1NC(=O)O[C@H](C)c1ccccc1Cl [Compound 1-114, [2-(4-{4-[(R)-1-(2-Chloro-phenyl)-ethoxycarbonylamino]-3-methyl-isoxazol-5-yl}-benzyloxy)-phenyl]-acetic acid]
< 0.3 µM	1 to 50 µM	Cc1noc(-c2ccc(-c3ccc(CC(=O)O)cc3)cc2)c1NC(=O)OC(C)c1cccc(F)c1F (stereo not shown) [Compound 1-116, (4′-{4-[1-(2,3-Difluoro-phenyl)-ethoxycarbonylamino]-3-methyl-isoxazol-5-yl}-biphenyl-4-yl)-acetic acid]
< 0.3 µM	1 to 50 µM	Cc1noc(-c2ccc(-c3ccc(CC(=O)O)cc3)cc2)c1NC(=O)OC(C)c1ccc(F)cc1F (stereo not shown) [Compound 1-117, (4′-{4-[1-(2,4-Difluoro-phenyl)-ethoxycarbonylamino]-3-methyl-isoxazol-5-yl}-biphenyl-4-yl)-acetic acid]
< 0.3 µM	1 to 50 µM	Cc1noc(-c2ccc(-c3ccc(CC(=O)O)cc3)cc2)c1NC(=O)OC(C)c1cc(F)ccc1F (stereo not shown) [Compound 1-119, (4′-{4-[1-(2,5-Difluoro-phenyl)-ethoxycarbonylamino]-3-methyl-isoxazol-5-yl}-biphenyl-4-yl)-acetic acid]
< 0.3 µM	> 50 µM	Cc1noc(-c2ccc(-c3ccc(CC(=O)O)cc3)cc2)c1NC(=O)OC(C)c1c(F)cccc1F (stereo not shown) [Compound 1-120, (4′-{4-[1-(2,6-Difluoro-phenyl)-ethoxycarbonylamino]-3-methyl-isoxazol-5-yl}-biphenyl-4-yl)-acetic acid]
< 0.3 µM	> 50 µM	Cc1noc(-c2ccc(-c3cccc(CC(=O)O)c3)cc2)c1NC(=O)O[C@H](C)c1ccccc1 [Compound 1-121]
< 0.3 µM	1 to 50 µM	Cc1noc(-c2ccc(-c3ccc(C(=O)O)cc3)cc2)c1NC(=O)O[C@H](C)c1ccccc1 [Compound 1-122]
< 0.3 µM	1 to 50 µM	Cc1ccccc1[C@@H](C)OC(=O)Nc1c(C)noc1-c1ccc(-c2ccc(CC(=O)O)cc2)cc1 [Compound 1-124]
< 0.3 µM	1 to 50 µM	Cc1noc(-c2ccc(-c3ccc(CC(=O)O)cn3)cn2)c1NC(=O)O[C@H](C)c1ccccc1F [Compound 1-126, (6′-{4-[(R)-1-(2-Fluoro-phenyl)-ethoxycarbonylamino]-3-methyl-isoxazol-5-yl}-[2,3,1]bipyridinyl-5-yl)-acetic acid]
< 0.3 µM	1 to 50 µM	Cc1noc(-c2ccc(-c3ccc(CC(=O)O)cc3)cc2Cl)c1NC(=O)O[C@H](C)c1ccccc1Cl [Compound 1-129, (3′-Chloro-4′-{4-[(R)-1-(2-chloro-phenyl)-ethoxycarbonylamino]-3-methyl-isoxazol-5-yl}-biphenyl-4-yl)-acetic acid]
< 0.3 µM	0.3 to 1 µM	CCC(C(=O)O)c1ccc(-c2ccc(-c3onc(C)c3NC(=O)O[C@H](C)c3ccccc3Cl)cc2)cc1 (stereo partly drawn) [Compound 1-130, 2-(4′-{4-[(R)-1-(2-Chloro-phenyl)-ethoxycarbonylamino]-3-methyl-isoxazol-5-yl}-biphenyl-4-yl)-butyric acid]
< 0.3 µM	1 to 50 µM	Cc1noc(-c2ccc(-c3ccc(CC(=O)O)cc3)c(F)c2)c1NC(=O)O[C@H](C)c1ccccc1Cl [Compound 1-132, (4′-{4-[(R)-1-(2-Chloro-phenyl)-ethoxycarbonylamino]-3-methyl-isoxazol-5-yl}-2′-fluoro-biphenyl-4-yl)-acetic acid]
< 0.3 µM	0.3 to 1 µM	Cc1noc(-c2ccc(-c3ccc(C(=O)O)cc3)cc2)c1NC(=O)O[C@H](C)c1ccccc1Cl [Compound 1-133, 4′-{4-[(R)-1-(2-Chloro-phenyl)-ethoxycarbonylamino]-3-methyl-isoxazol-5-yl}-biphenyl-4-carboxylic acid]
< 0.3 µM	1 to 50 µM	Cc1noc(-c2ccc(Oc3cccc(CC(=O)O)c3)cc2)c1NC(=O)O[C@H](C)c1ccccc1Cl [Compound 1-137, [3-(4-{4-[(R)-1-(2-Chloro-phenyl)-ethoxycarbonylamino]-3-methyl-isoxazol-5-yl}-phenoxy)-phenyl]acetic acid]
< 0.3 µM	0.3 to 1 µM	Cc1noc(-c2ccc(Oc3ccc(CC(=O)O)cc3)cc2)c1NC(=O)O[C@H](C)c1ccccc1Cl [Compound 1-138, [4-(4-{4-[(R)-1-(2-Chloro-phenyl)-ethoxycarbonylamino]-3-methyl-isoxazol-5-yl}-phenoxy)-phenyl]-acetic acid]
< 0.3 µM	1 to 50 µM	Cc1noc(-c2ccc(-c3ccc(C(O)C(=O)O)cc3)cc2)c1NC(=O)O[C@H](C)c1ccccc1F (stereo partly drawn) [Compound 1-139, (4′-{4-[(R)-1-(2-Fluoro-phenyl)-ethoxycarbonylamino]-3-methyl-isoxazol-5-yl}-biphenyl-4-yl)-hydroxy-acetic acid]
< 0.3 µM	1 to 50 µM	CCC(C(=O)O)c1ccc(-c2ccc(-c3onc(C)c3NC(=O)O[C@H](C)c3ccccc3)cn2)cc1 (stereo partly shown) [Compound 1-142]
< 0.3 µM	1 to 50 µM	Cc1noc(-c2ccc(-c3ccc(CC(=O)O)cc3)cc2)c1NC(=O)O[C@@H](C)c1ccccc1 [Compound 1-143, {4′-[3-Methyl-4-((S)-1-phenyl-ethoxycarbonylamino)-isoxazol-5-yl]-biphenyl-4-yl}-acetic acid]
1 to 50 µM	> 50 µM	Cc1noc(-c2ccc(-c3ccc(CC(=O)O)cc3)cc2)c1NC(=O)O[C@H](C)c1cccc(O)c1 [Compound 1-144, (4′-{4-[(R)-1-(3-Hydroxy-phenyl)-ethoxycarbonylamino]-3-methyl-isoxazol-5-yl}-biphenyl-4-yl)-acetic acid]
< 0.3 µM	1 to 50 µM	Cc1noc(-c2ccc(-c3ccc(CC#N)cc3)cc2)c1NC(=O)O[C@H](C)c1ccccc1Cl [Compound 2-2, [5-(4′-Cyanomethyl-biphenyl-4-yl)-3-methyl-isoxazol-4-yl]-carbamic acid (R)-1-(2-chloro-phenyl)-ethyl ester]
< 0.3 µM	> 50 µM	Cc1noc(-c2ccc(-c3ccc(CC#N)cc3)cc2)c1NC(=O)O[C@H](C)c1ccccc1F [Compound 2-3, [5-(4′-Cyanomethyl-biphenyl-4-yl)-3-methyl-isoxazol-4-yl]-carbamic acid (R)-1-(2-fluoro-phenyl)-ethyl ester]
< 0.3 µM	1 to 50 µM	Cc1noc(-c2ccc(-c3ccc(Cc4nn[nH]n4)cc3)cc2)c1NC(=O)O[C@H](C)c1ccccc1F [Compound 2-4, {3-Methyl-5-[4′-(2H-tetrazol-5-ylmethyl)-biphenyl-4-yl]-isoxazol-4-yl}-carbamic acid (R)-1-(2-fluoro-phenyl)-ethyl ester]
< 0.3 µM	1 to 50 µM	Cc1noc(-c2ccc(-c3ccc(Cc4nn[nH]n4)cc3)cc2)c1NC(=O)O[C@H](C)c1ccccc1Cl [Compound 2-5, {3-Methyl-5-[4′-(2H-tetrazol-5-ylmethyl)-biphenyl-4-yl]-isoxazol-4-yl}-carbamic acid (R)-1-(2-chloro-phenyl)-ethyl ester]
< 0.3 µM	> 50 µM	Cc1noc(-c2cnc(-c3ccc(CC(=O)O)cc3)s2)c1NC(=O)O[C@H](C)c1ccccc1F [Compound 3-4, [4-(5-{4-[(R)-1-(2-Fluoro-phenyl)-ethoxycarbonylamino]-3-methyl-isoxazol-5-yl}-thiazol-2-yl)-phenyl]-acetic acid]

Compound	IC50 (human LPA1)	IC50 (human LPA3)
Cc1noc(-c2ccc(-c3ccc(CC(=O)O)cc3)c(Cl)c2)c1NC(=O)O[C@H](C)c1ccccc1Cl [Compound 1-131, (2′-Chloro-4′-{4-[(R)-1-(2-chloro-phenyl)-ethoxycarbonylamino]-3-methyl-isoxazol-5-yl}-biphenyl-4-yl)-acetic acid]	< 0.3 µM	1 to 50 µM
